Laboratory results: patent publication US12214058B2, “Imaging methods using deuterated compounds” (Genentech, Inc., priority 2014, dated 2025)

Key:
[1] = Microsomal stability assay, human liver microsomes; assay type: in vitro ADME; details: for amount of remaining compound: non-radiolabeled, 40 min
Procedure: Microsomal stability assays The tracer [^18F][A]-d2 or [^18F][A] was dissolved in potassium phosphate (Kpi) buffer (100 mM) at concentration 500-600 μCi/mL. The non-radioactive 7 and 10 were dissolved in Kpi buffer at 10 μM concentration. The reaction vessel was charged with human or mouse liver microsome suspension (12.5 μL, 20 mg/mL) followed by Kpi buffer (388 μL, 10 mM), NADPH (50 μL, 10 mM) and incubated at 37° C. for 5-10 min. A solution of the radioactive [^18F][A]-d2 or [^18F][A] (50 μL, […]) or non-radioactive 7 or […] (50 μL, 10 μM) were added to the reaction vessel and the mixture was incubated at 37° C. […] The supernatant was analyzed by LCMS (System E).

[2] = Microsomal stability assay, mouse liver microsomes; assay type: in vitro ADME; details: 5 min; for fraction of unmetabolized compound: non-radiolabeled
Procedure: (§1) Microsomal stability assays The tracer [^18F][A]-d2 or [^18F][A] was dissolved in potassium phosphate (Kpi) buffer (100 mM) at concentration 500-600 μCi/mL. The non-radioactive 7 and 10 were dissolved in Kpi buffer at 10 μM concentration. The reaction vessel was charged with human or mouse liver microsome suspension (12.5 μL, 20 mg/mL) followed by Kpi buffer (388 μL, 10 mM), NADPH (50 μL, 10 mM) and incubated at 37° C. for 5-10 min. A solution of the radioactive [^18F][A]-d2 or [^18F][A] (50 μL, 250-300 μCi) or non-radioactive 7 or 8 (50 μL, 10 μM) were added to the reaction vessel and the mixture was incubated at 37° C. Aliquots (50 μL) of the reaction mixture were taken at 5, 15 and 45 minutes post addition of the tested compound, mixed with ice-cold acetonitrile (100 μL) and centrifuged. The supernatant was analyzed by LCMS (System E).

[3] = Dynamic microPET imaging in mice; assay type: in vivo, mice (C57BL/6)
Procedure: MicroPET Imaging The PET imaging was performed on Inveon PET/CT scanner (Siemens Medical Solutions USA Inc.). Animals anesthetized with sevoflurane were placed head-first, prone position on the scanner bed and dynamic 45 min scans were initiated. Approximately 3.7 MBq of ^18F-radiolabeled tracer in isotonic solution (100-130 μL) was administered as 60 second intravenous infusion via the tail vein. Body temperature was measured by a rectal probe and maintained with warm air flow at 37° C. Full-body iterative image reconstructions were obtained using maximum a posteriori algorithm (MAP, hyperparameter β 0.05) and corrected for signal attenuation using the tissue density obtained from CT. Projections were created with PMOD 3.305 (PMOD Technologies, Ltd., Zurich, Switzerland) and used to obtain quantitative activity levels in each organ of interest using region-of-interest analysis.

[4] = Microsomal stability assay, rhesus liver microsomes; assay type: in vitro ADME
Procedure: as §1, with “E). The radiolabeled tracers [^18F][A] and [^18F][A]-d2 (n=3) were incubated with human, rhesus or mouse liver microsome suspension with or without NADPH at 37° C. and the mixture was analyzed for a presence of radioactive metabolites at 5, 15 and 45 min. In the presence of mouse and rhesus liver microsomes, both the [^18F][A] and [^18F][A]-d2 metabolized rapidly to ^18F-fluoride (retention time (rt)=0.38 min), and two radioactive metabolites M2 and M1 (rt=1.2 and 1.4 min). […]” for “E).”

[5] = tested on: tau (NFTs) in human brain tissues; experiment: Autoradiography on postmortem human brain tissues; assay type: binding
Procedure: Autoradiography The tracer [^18F][A] or [^18F][A]-d2 was dissolved in PBS containing 5% DMSO and 5% ethanol at final concentration 40 μCi/mL. Then 0.5 ml of stock solution was transferred to a microscope slide with 5 μm thick freshly dried section of a tissue and incubated for 90 min at room temperature. The slides were washed by dipping into following solutions: PBS for 1 min, 70% ethanol 2 min, 30% ethanol 2 min and PBS 1 min. The samples were dried at room temperature for 30 min and exposed to phosphorimager plate for 20 h. The exposed plates were scanned at 25 μm resolution.
Autoradiographic evaluation of [^18F][A] and [^18F][A]-d2 was performed using brain tissues collected postmortem from human donors. […] The positive staining was found in grey matter of tissues containing high level of NFTs and high AD-amyloid characterized as Braak score 5. […] The NFT and Aβ-amyloid burden was measured by standard immunohistochemical methods.

[6] = target: tau aggregates in AD patient tissues; details: cited from earlier work

SMILES	amount of remaining compound [1] [%]	fraction of unmetabolized compound [2] [%]	bone uptake ([3]; n=6, 30-45 min post tracer injection) [% ID/g]	stability of parent compound compared with mouse liver microsomes [4]	fraction attributed to parent compound ([1]; radiolabeled, 45 min incubation, n=3) [%]	staining of negative control tissues ([5]; high or moderate amyloid burden but no NFTs, Braak score 3 or 2)	autoradiographic binding pattern ([5]; human brain tissues, positive staining in grey matter with high NFTs, Braak score 5)	amount of parent compound ([2]; radiolabeled, n=3) [%]	Kd ([6]; AD patient tissues, read-out: affinity for tau aggregates in AD patient tissues) [nM]	selectivity for tau over Aβ amyloid [6] [fold]	uptake in liver and kidneys, comparison of the two tracers ([3]; n=6)	peak uptake in brain ([3]; n=6, i.v., dynamic PET) [% ID/g]
FCCC1CCN(c2ccn3c(n2)nc2ccccc23)CC1 [[A], 2-(1-(benzo[4,5]imidazo[1,2-a]pyrimidine-2-yl)piperidin-4-yl)-1-fluoroethane, reference compound]	15	2	31.2±4.8									
[2H]C([2H])(F)CC1CCN(c2ccn3c(n2)nc2ccccc23)CC1 [[A]-d2, 1,1-dideutero-2-(1-(benzo[4,5]imidazo[1,2-a]pyrimidine-2-yl)piperidin-4-yl)-1-fluoroethane]	56	11										
[18F]CCC1CCN(c2ccn3c(n2)nc2ccccc23)CC1 [[^18F][A], 2-(1-(benzo[4,5]imidazo[1,2-a]pyrimidine-2-yl)piperidin-4-yl)-1-[^18F]fluoroethane, reference compound]				slightly more stable	35.7±0.9	not positively stained	tau specific binding patterns	1.6±0.9	22	27	indistinguishable	8.3±2.0
